Source: patent US9717721B2, “Use of aryl-quinolin derivatives as inhibitors of vasculogenic mimicry” (TaiRx Inc., priority 2015, dated 2017)

How the values were obtained:
[1] = system: phosphorylated Smad2 (P-Smad2); test: Immunoblotting of phosphorylated Smad2 in C8161 cells; assay type: cell-based, human; conditions: 10 nM
Experimental: (§1) To further understand how TRX-818 alters the signaling pathways required for VM network formation, the protein levels of Pro-Nodal, Smad2, and phosphorylated Smad2 (P-Smad2) were determined using immunoblotting analysis. On the day of study, TRX-818 was prepared as described in Example 1, C8161 cells were untreated (control) or treated with 10 nM TRX-818 for 1, 4, 8, and 24 h. Protein expression of Nodal and total Smad2, and P-Smad2 was analyzed by immunoblotting analysis, 5×10^6 aggressive human melanoma (C8161) cells were seeded onto a plastic dish in the presence of 10 nM TRX-818, and total proteins were collected for analysis. To quantify the protein levels of Nodal and P-Smad2, 40 μg and 25 μg of total proteins were used for SDS-PAGE and immunoblotting, respectively. The protein level of β-actin was used for normalization to assure equal protein loading.

VE-cadherin (CDH5) = test: qRT-PCR mRNA level of CDH5 in C8161 cells; assay type: cell-based, human; conditions: 10 nM
Experimental: (§2) To determine whether TRX-818 reduced the VM network formation by altering the levels of the essential proteins for VM, its effect on Nodal, Notch4, VE-cadherin (CDHE5) or ephrin receptor A2 (Eph A2) expression was determined using qRT-PCR. 2×10^6 of aggressive human melanoma (C8161) cells were treated with 10 nM TRX-818 for 8, 24, 48, or 72 h. Sterile deionized water (tissue-culture grade) was used as vehicle.

Pro-Nodal = test: Immunoblotting of Pro-Nodal protein in C8161 cells; assay type: cell-based, human; conditions: 10 nM
Experimental: as §1

[2] = system: C8161 aggressive melanoma cells; test: VM network formation in three-dimensional MATRIGEL, C8161 cells; assay type: cell-based, human; conditions: 24 h treatment
Experimental: (§3) Aggressive human melanoma (C8161 or SK-MEL28; 1×10^5) cells were seeded into a three-dimensional polymerized MATRIGEL™ (75 μl) for VM network analysis. C8161 or SK-MEL28 cells were treated for 24 h with 0.5, 1, 5, 10, 25 or 50 or 100 nM of TRX-818 at 5 or 24 h after cell attachment. Another set of melanoma cells were seeded onto a plastic dish and treated for the same amount of time before the cell viability of C8161 or SK-MEL28 cells was determined using the Guava Nexin Assay (Millipore, USA).
(§4) The VM network image was taken using a confocal laser scanning microscope equipped with an environmental, chamber to track the response of cancer cells to the test compound. The images were then digitized and subsequently analyzed using the Angiosys software. Four images per sample were analyzed to quantify the number of junctions and total tubule length of VM formation. Changes were presented in percentage relative to the vehicle control. Sterile deionized water (tissue-culture grade) was used as the vehicle control.
Aggressive human melanoma (C8161, 7.5×10^4) cells were seeded as disclosed in Example 1. C8161 cells were treated tor 4 h or 24 h with 0.3, 1 or 5 nM of TRX-818M1. Another set of melanoma cells were seeded onto a plastic dish and treated for the same amount of time before the cell viability of C8161 cells was determined.

[3] = system: Aggressive human melanoma (C8161 or SK-MEL28) cells; test: Quantification of number of junctions and total tubule length of VM formation (Angiosys); assay type: cell-based
Experimental: as §3, §4

SK-MEL28 cancer cells = test: VM network formation in three-dimensional MATRIGEL, SK-MEL28 cells; assay type: cell-based, human; conditions: 24 h treatment
Experimental: as §3, §4

Smad2 = test: Immunoblotting of total Smad2 in C8161 cells; assay type: cell-based, human; conditions: 10 nM
Experimental: as §1

Nodal = test: qRT-PCR mRNA level of Nodal in C8161 cells; assay type: cell-based, human; conditions: 10 nM
Experimental: as §2

[4] = system: Notch4 intracellular domain (Notch 4 ICD); test: qRT-PCR mRNA level of Notch4 ICD in C8161 cells; assay type: cell-based, human; conditions: 10 nM
Experimental: as §2

[5] = system: HCT-116 orthotopic human colon cancer xenograft; test: HCT-116 orthotopic human colon cancer xenograft model; assay type: in vivo, mice; conditions: for animals found dead prior to study termination: ten mice/group
Experimental: The inhibitory effect of TRX-818 on tumor growth and VM formation of HCT-116, a highly metastatic colon tumor, was examined in a HCT-116 orthotopic xenograft model. The effect of TRX-818 was evaluated on the formation of the vascular or vascular-like (vasculogenic mimicry, VM) network by immunohistochemistry staining (IHC) in orthotopic xenograft human colon cancer model inoculated with HCT116 colon cancer cell lines
Six groups were set in this study (ten mice/group). There were: Group 1, TRX-818 at 20 mg/kg given as oral administration; Group 2, TRX-818 at 50 mg/kg given as oral administration; Group 3, TRX-818 at 100 mg/kg given as oral administration; Group 4, TRX-818 at 20 mg/kg given as intravenous injection; Group 5, Irinotecan at 50 mg/kg given as intraperitoneal injection; Group 6, vehicle group. Dose schedule for G1, G2, G3 and G6 was QD×28 and for G4 was QOD×7. Body weights were monitored for safety evaluation. Tumor size and tumor weight were measured at the end of in-life study. The percentage of tumor growth inhibition (TGI %) was calculated at the termination of the study for anti-tumor effect evaluation. The average body weight of study mice on Day 1 was ˜20 gram and decreased to ˜17-19 gram at the end of study (Day 42)
At the end of 28-day dosing, CO2 anesthesia (1 min) followed by cervical dislocation was used for mice euthanasia in the study prior to tumors and lungs excision. First, a ventral midline incision was made and colon with primary tumor was excised and collected. The tumor collection was completed in 3 minutes after euthanasia. The tissues were rinsed with PBS to remove the blood before fixation.
The number of channels with CD31^+/red blood cell (RBC)^+ or CD31^−/RBC^+ were counted on the whole section of each sample in each group, and the number of vessels with CD31 positive or negative staining were counted based on 5 light fields (200×) under microscope. The vascular network represented by the CD31^+/RBC^+ staining whereas the VM network represented by CD31^−/RBC^+ staining, because the VM formation is independent of vascular endothelial cells. The scoring was conducted by blinded, objective observer.

`COc1ccc2[nH]c(-c3cccc(F)c3)cc(=O)c2c1OP(=O)(O)O` [TRX-818, 2-(3-fluorophenyl)-6-methoxy-4-oxo-1,4-dihydroquinolin-5-yl phosphate] was tested, and the “P-Smad2/Smad2 post-treatment protein level (relative to untreated control cells)” value ([1]; 1 hour) was −33%, the “P-Smad2 post-treatment protein level (relative to untreated control cells)” value ([1]; 1 hour) was −4% and the “P-Smad2/Smad2 post-treatment protein level (relative to untreated control cells)” value ([1]; 4 hours) was −60%. For the same compound, the “P-Smad2 post-treatment protein level (relative to untreated control cells)” value ([1]; 4 hours) was −57%, the “P-Smad2/Smad2 post-treatment protein level (relative to untreated control cells)” value ([1]; 8 hours) was −40% and the “P-Smad2 post-treatment protein level (relative to untreated control cells)” value ([1]; 8 hours) was −39%. For the same compound, the “P-Smad2/Smad2 post-treatment protein level (relative to untreated control cells)” value ([1]; 24 hours) was −76%, the “P-Smad2 post-treatment protein level (relative to untreated control cells)” value ([1]; 24 hours) was −73% and the “decrease of CDH5 mRNA level compared to control” value (VE-cadherin (CDH5); 8 hours) was 70%. The mrna remaining at 0.01 µM (VE-cadherin (CDH5); Homo sapiens, 72 hours, read-out: CDH5 mRNA level remaining, % of control cells) was 50%, the “decrease in Pro-Nodal protein level vs control cells” value (Pro-Nodal; 24 h) was 63% and the “decrease in Pro-Nodal protein level vs control cells” value (Pro-Nodal; four to eight hours) was 28%. The “decrease in Nodal protein expression (detected as Pro-Nodal) vs control cells” value (Pro-Nodal; one hour) was 4%, the “concentration at which VM network formation was inhibited” value [2] was 5 to 10 nM and the “No. of junctions, relative to vehicle control” value ([3]; 1 nM) was −16.5%. For the same compound, the “Total tubule length, relative to vehicle control” value ([3]; 1 nM) was −15.1%, the “No. of junctions, relative to vehicle control” value ([3]; 5 nM) was −43.1% and the “Total tubule length, relative to vehicle control” value ([3]; 5 nM) was −23.3%. For the same compound, the “maximal reduction of cell junctions” value ([3]; 5 nM) was 43%, the “No. of junctions, relative to vehicle control” value ([3]; 10 nM) was −35.9% and the “Total tubule length, relative to vehicle control” value ([3]; 10 nM) was −26.0%. For the same compound, the “No. of junctions, relative to vehicle control” value ([3]; 50 nM) was −42.9%, the “Total tubule length, relative to vehicle control” value ([3]; 50 nM) was −47.5% and the “maximal reduction of total tubule length” value ([3]; 50 nM) was 48%. For the same compound, the “concentration at which VM network formation was inhibited” value (SK-MEL28 cancer cells) was 5 to 10 nM, the “Smad2 post-treatment protein level (relative to untreated control cells)” value (Smad2; 1 hour) was “+43%” and the “Smad2 post-treatment protein level (relative to untreated control cells)” value (Smad2; 4 hours) was “+9%”. The “Smad2 post-treatment protein level (relative to untreated control cells)” value (Smad2; 8 hours) was “+3%”, the “Smad2 post-treatment protein level (relative to untreated control cells)” value (Smad2; 24 hours) was “+13%” and the “decrease of Nodal mRNA level compared to control” value (Nodal; 8 hours) was 80%. For the same compound, the mrna remaining at 0.01 µM (Nodal; Homo sapiens, 72 h, read-out: Nodal mRNA level remaining, % of control cells) was 70%, the “decrease of Notch4 ICD mRNA level compared to control” value ([4]; 8 hours) was 75% and the mrna remaining at 0.01 µM ([4]; Homo sapiens, 72 h, read-out: Notch4 ICD mRNA level remaining, % of control cells) was 50%. For the same compound, the “animals found dead prior to study termination” value ([5]; 20 mg/kg QOD group (intravenous)) was “two”, the “animals found dead prior to study termination” value ([5]; 50 mg/kg QD group) was “one” and the “reduction of tumor volume compared to the vehicle group” value ([5]; 50 mg/kg oral QD×28, Day 43 post tumor inoculation) was 49%. For the same compound, the “Average number of channels (CD31−/RBC+, VM) in the whole tumor section per group, Mean ± SEM” value ([5]; 100 mg/kg QD×28, p.o.) was 0.8 ± 0.3 and the “MED (Minimum Effective Dose)” value ([5]; orally administered) was 50 mg/kg.
